The subject of test [1] is Bethyl antibody. The test can be described thus: Reactivity of ATRX C-terminal peptides with the Bethyl antibody. Format: binding. The settings on record: KLH-coupled peptides, FIG. 11. The source says: All peptides were generated by Thermo Fisher Scientific/Pierce Biotechnology and coupled to the carrier KLH. All conjugates were provided at >98% purity as determined by HPLC. Peptide sequences were confirmed by mass spec. Peptides RSK, 2490Ac and 2480Ra reacted with the Bethyl antibody (FIG. 11).

Test [2] deals with responder cell line LS8817. The test can be described thus: Senescence-associated β-galactosidase after PD0332991 in ATRX knockdown cells. The test is classed as cell-based. The note with it: LS8817 infected with shRNA directed to ATRX vs shSCR, PD0332991 for seven days, FIG. 3. The protocol:
To determine if ATRX plays a role in the senescence pathway induced by treatment with a CDK4 inhibitor, the expression of ATRX was genetically manipulated in the responder cell line, LS8817. Knockdown of ATRX (FIG. 2) was performed in LS8817 cells that were treated with PD0332991. The presence of ATRX in scrambled control shRNA (shSCR)-treated cells and the ATRX shRNA-treated cells was detected by the Bethyl antibody. The accumulation of […] associated β-galactosidase (SA-β-gal) shSCR-treated cells and the ATRX shRNA-treated cells was measured (FIG. 3). […] To determine if ATRX was also downstream of MDM2 loss, we subsequently infected the ATRX deficient cells with lentiviruses expressing shRNAs that targeted MDM2. In the responder cell line, LS8817, accumulation of SA-β-gal was still compromised even though the level of MDM2 was reduced (FIG. 4A). […] Thus, a form of ATRX was required for both PD0332991-induced loss of MDM2, and downstream of MDM2 loss to establish a senescent state.

The subject of test [3] is responder cell line LS8817. The test can be described thus: ATRX foci by immunofluorescence in responder cells treated with PD0332991. The test is classed as cell-based. How it is done:
(§1) Cells were washed twice with PBS and fixed with 4% paraformaldehyde at room temperature for 20 minutes. Cells were again washed twice with PBS and treated with 0.1% triton X-100 in PBS for five minutes. Cells were again washed twice with PBS and blocked in 5% BSA in PBS for 30 minutes at room temperature. Cells were incubated with anti-ATRX antibody, obtained from Bethyl, Cat No. A301-045A, diluted at 1:2000 in PBS (stock is provided at 1 mg/ml) overnight at 4 degrees Celsius. The following day, cells were washed twice with PBS and incubated with Alexa Fluor-488 anti-rabbit secondary diluted at 1:500 in PBS (stock was provided at 2 mg/ml) for one hour at room temperature. Cells were washed twice with PBS and incubated with 0.1 ug/ml […] for 5 minutes at room temperature. Cells were washed three times with PBS and slides were mounted in Vectashield fluorescence mounting media. Slides were imaged using a Zeiss Axioplan 2 Upright Microscope. […] Immunofluorescence analysis using the Bethyl antibody was performed to determine if ATRX was recruited to foci. Immunofluorescence was performed as described in Example 1. In the responder cell line LS8817, further analysis was performed to determine the average number of foci present in responder cells undergoing senescence in response treatment with PD0332991. […] The distribution of the number of ATRX foci shifted to the right in responder cells treated with PD0332991 as compared to responder cells that were not treated. […] As shown in FIG. 16A-C, the increase in the number of ATRX foci in response to PD0332991 treatment in responder cells can be observed as early as day 2 subsequent to PD0332991 treatment.

Test [4] deals with non-responder cell line LS8107. The test can be described thus: ATRX foci by immunofluorescence in non-responder cells treated with PD0332991. Format: cell-based. How it is done: as §1, with “treatment. To determine whether ATRX foci can be used as a marker for indicating if non-responders underwent senescence in response to treatment with second drug in combination with a CDK inhibitor, non-responder cells, e.g., LS8107, was treated with PD0332991 followed by treatment with shRNA directed to MDM2 2 days post-PD0332991 treatment (FIG. 17).” for “treatment.”

Non-standard residues stand in square brackets, D forms with d. No end group written: not given here. Arg(Me2s) = CN=C(NC)NCCC[C@H](N)C(=O)O; pS = N[C@@H](COP(=O)(O)O)C(=O)O

As to “APPMRSKNPGPSQGKSM [amino acids 2475-2492 of ATRX, no modification, coupled to the carrier KLH]”, the “reactivity with the Bethyl antibody” value in test [1] was “reacted”.
With `CC(=O)c1c(C)c2cnc(Nc3ccc(N4CCNCC4)cn3)nc2n(C2CCCC2)c1=O` [PD0332991], the “number of SA-β-gal positive cells” value in test [2] is “greatly reduced”. In test [3] (LS8817, PD0332991 treated vs not treated, FIG. 14), the “number of ATRX foci in responder cells undergoing senescence” value is listed as “significantly more”. Moreover, the “number of cells that contained 18 or more ATRX foci” value in test [3] (LS8817, in response to PD0332991 treatment, FIG. 14) is reported as “greatly increased”. Besides, the “earliest time at which the increase in ATRX foci is observed” value in test [3] (responder cells, subsequent to PD0332991 treatment, FIG. 16A-C) is 2 days. For the same compound, the “number of ATRX foci” value in test [3] (senescent responder cells, PD0332991 treatment, FIG. 13B) is “increased”; in test [4] (LS8107, PD0332991 followed by shMDM2 2 days later, vs untreated or PD0332991 alone, FIG. 18) it was “significant increase”; in test [4] (PD0332991-treated non-responder cells, FIG. 13B) it was “no increase”. In addition, the “average number of ATRX foci per cell” value in test [4] (LS8107, PD0332991 treated vs not treated, FIG. 15) is “did not change”.
On to “PPPLQRAPPM [Peptide 2474, amino acids 2469-2479 of ATRX, no modification, coupled to KLH]”, for which the “reactivity with the Bethyl antibody” value in test [1] is “did not react”.
On to “SKNPGPSQGKSM [Peptide 2490Ac, amino acids 2481-2492 of ATRX, acetylated at lysine 2490]”, for which the “reactivity with the Bethyl antibody” value in test [1] is listed as “reacted”.
As for “APPPMRSKNP [Peptide 2480Ra, amino acids 2475-2484 of ATRX, asymmetrically methylated at arginine 2480]”, the “reactivity with the Bethyl antibody” value in test [1] is recorded as “reacted”.
Still for that read-out and setting: next, “APPPMRSKNP [2480Rs] (APPPM[Arg(Me2s)]SKNP) [Peptide 2480Rs, amino acids 2475-2484 of ATRX, symmetrically methylated at arginine 2480]”: “did not react”; “SKNPGPSQG (SKNPGP[pS]QG) [Peptide 2487P, amino acids 2481-2489 of ATRX, phosphorylated at serine 2487]”: “did not react”.

The record behind these values is patent US20160222131A1, “ATRX AS A COMPANION DIAGNOSTIC FOR CDK4 INHIBITORS” (Memorial Sloan-Kettering Cancer Center, priority 2013, published 2016).
